The test system of this assay is integrin α4β1 (VLA-4) on WT and IkE5Δ/Δ pre-B cells. Kind of assay: Adhesion of adherent pre-B cells to fibronectin-coated plates with peptide blocking. It counts as cell-based, mouse. To be noted: 400 μg/ml peptide. How it is done:
Adhesion to Integrin Ligands and In Vitro FAK Inhibition Assay. Adhesion assay were performed in non-TC treated plates (BD). The plates were coated with 10 ug/ml fibronectin (FN), collagen (Col.) (Invitrogen) or BSA alone overnight at 4° C. After blocking the plates with 2% BSA for 1 h, equal number of cells were plated and incubated for the indicated time points. At the end of the assay, unbound and bound cells were harvested and enumerated. Percent adhesion was calculated by taking ratio of bound cells over total cells used in each assay.
For peptide mediated blocking of adhesion^55, equal number of cells were pretreated for 45 minutes with either 400 μg/ml G-R-G-D-S-P (SEQ ID NO:1) or the control peptide G-R-G-E-S (SEQ ID NO:2) (American Peptide Company) and plated on FN-coated TC dishes. Cells were enumerated for calculation of percent adhesion and percent inhibition.

Turning to G-R-G-D-S-P [RGD], the “binding of pre-B cells to fibronectin” value is “significantly inhibited”.

These data come from patent US10106834B2, “Methods of diagnosing and treating B cell acute lymphoblastic leukemia” (The General Hospital Corporation, priority 2013, dated 2018).
